Results from ChEMBL document CHEMBL5241112, “Insights into the recent progress in the medicinal chemistry of pyranopyrimidine analogs” (RSC Med Chem, 2022).
Values after ≈ are worked out from the molar mass of the structure shown.

Experiments:
MCF7 [1] = experiment: Antiproliferative activity against human MCF7 cells assessed as reduction in cell proliferation; assay type: functional, cell-based
HepG2 [2] = experiment: Antiproliferative activity against human HepG2 cells assessed as reduction in cell proliferation; assay type: functional, cell-based
[3] = Antiproliferative activity against human […] cells assessed as reduction in cell proliferation; assay type: functional, cell-based
Bacillus subtilis [4] = experiment: Antibacterial activity against Bacillus subtilis assessed as diameter of inhibition zone; assay type: functional
Escherichia coli [5] = experiment: Antibacterial activity against Escherichia coli assessed as diameter of inhibition zone; assay type: functional
Salmonella typhimurium [6] = experiment: Antibacterial activity against Salmonella typhimurium assessed as diameter of inhibition zone; assay type: functional, Salmonella enterica subsp. enterica serovar Typhimurium
Salmonella typhimurium [7] = experiment: Antibacterial activity against Salmonella typhimurium MTCC 98 assessed as bacterial growth inhibition by broth microdilution method; assay type: functional, Salmonella enterica subsp. enterica serovar Typhimurium; details: Salmonella enterica
Staphylococcus aureus [8] = experiment: Antibacterial activity against Staphylococcus aureus assessed as diameter of inhibition zone; assay type: functional
Proteus mirabilis = experiment: Antibacterial activity against Proteus mirabilis NTCC-289 assessed as diameter of inhibition zone incubated for 24 hrs by disc diffusion method; assay type: functional
Aspergillus ochraceus = experiment: Antifungal activity against Aspergillus ochraceus AUCC-230 assessed as diameter of inhibition zone incubated for 24 hrs by disc diffusion method; assay type: functional
Bacillus cereus = experiment: Antibacterial activity against Bacillus cereus ATCC-14579 assessed as diameter of inhibition zone incubated for 24 hrs by disc diffusion method; assay type: functional
Staphylococcus aureus [9] = experiment: Antibacterial activity against Staphylococcus aureus NCTC-7447 assessed as diameter of inhibition zone incubated for 24 hrs by disc diffusion method; assay type: functional
Serratia marcescens = experiment: Antibacterial activity against Serratia marcescens IMRU-70 assessed as diameter of inhibition zone incubated for 24 hrs by disc diffusion method; assay type: functional
Penicillium chrysogenum = experiment: Antifungal activity against Penicillium chrysogenum AUCC-530 assessed as diameter of inhibition zone incubated for 24 hrs by disc diffusion method; assay type: functional
Staphylococcus aureus [10] = experiment: Antibacterial activity against Staphylococcus aureus NCIM 2654 assessed as diameter of inhibition zone incubated for 24 hrs by agar well diffusion method; assay type: functional
Candida albicans = experiment: Antifungal activity against Candida albicans assessed as diameter of inhibition zone incubated for 48 hrs by agar well diffusion method; assay type: functional
[11] = Antioxidant activity assessed as DPPH radical scavenging activity at 12 ug incubated for 30 mins by spectrophotometric analysis; assay type: functional; details: dose 12.0 µg
[12] = system: Mycobacterium tuberculosis; experiment: Antitubercular activity against Mycobacterium tuberculosis H37Rv assessed as bacterial growth inhibition at 250 ug/ml; assay type: functional
Clostridium tetani = experiment: Antibacterial activity against Clostridium tetani MTCC 449 assessed as bacterial growth inhibition by broth microdilution method; assay type: functional
Aspergillus fumigatus = experiment: Antifungal activity against Aspergillus fumigatus MTCC 227 assessed as fungal growth inhibition by broth microdilution method; assay type: functional
[13] = system: Mycobacterium tuberculosis; experiment: Antitubercular activity against Mycobacterium tuberculosis H37Rv assessed as bacterial growth inhibition at 100 ug/ml; assay type: functional
Plasmodium falciparum = experiment: microbe, parasite or virus in culture
Alpha-glucosidase = Alpha-glucosidase (Saccharomyces cerevisiae S288c, UniProt P53341+P38158+P07265); experiment: Inhibition of Saccharomyces cerevisiae alpha-glucosidase assessed as decrease in release of p-nitrophenol using pNPG as substrate incubated for 10 mins by spectroscopic analysis; assay type: protein assay
Klebsiella pneumoniae [14] = experiment: Antibacterial activity against Klebsiella pneumoniae assessed as diameter of inhibition zone at 100 ug/ml by disc diffusion method; assay type: functional; details: read-out: DIZ
Bacillus subtilis [15] = experiment: Antibacterial activity against Bacillus subtilis assessed as diameter of inhibition zone at 100 ug/ml by disc diffusion method; assay type: functional; details: read-out: DIZ
Escherichia coli [16] = experiment: Antibacterial activity against Escherichia coli assessed as diameter of inhibition zone at 100 ug/ml by disc diffusion method; assay type: functional; details: read-out: DIZ
HepG2 [17] = experiment: Anticancer activity against human HepG2 cells assessed as reduction in cell viability incubated for 48 hrs by MTT assay; assay type: functional, cell-based; details: HepG2, 48 h
[18] = Antioxidant activity assessed as H2O2 radical scavenging activity; assay type: functional
[19] = Antioxidant activity assessed as DPPH radical scavenging activity; assay type: functional
[20] = Antioxidant activity assessed as NO radical scavenging activity; assay type: functional
Pseudomonas aeruginosa = experiment: Antibacterial activity against Pseudomonas aeruginosa assessed as bacterial growth inhibition by broth microdilution method; assay type: functional
[21] = system: Mycobacterium tuberculosis; experiment: Antitubercular activity against Mycobacterium tuberculosis H37Rv assessed as bacterial growth inhibition incubated for 24 hrs by MABA assay; assay type: functional
Staphylococcus aureus [22] = experiment: Antibacterial activity against Staphylococcus aureus assessed as inhibition of bacterial growth; assay type: functional
Escherichia coli [23] = experiment: Antibacterial activity against Escherichia coli assessed as bacterial growth inhibition by broth microdilution method; assay type: functional
Staphylococcus aureus [24] = experiment: Antibacterial activity against Staphylococcus aureus assessed as bacterial growth inhibition by broth microdilution method; assay type: functional
Klebsiella pneumoniae [25] = experiment: Antibacterial activity against Klebsiella pneumoniae assessed as bacterial growth inhibition by broth microdilution method; assay type: functional
Escherichia coli [26] = experiment: Antibacterial activity against Escherichia coli MTCC 723 assessed as diameter of inhibition zone at 0.1 mg/ml incubated for 24 hrs by agar well diffusion method; assay type: functional; details: read-out: DIZ
Escherichia coli [27] = experiment: Antibacterial activity against Escherichia coli ATCC 25922 assessed as diameter of inhibition zone at 50 mg/ml incubated for 24 hrs by paper disk diffusion method; assay type: functional; details: read-out: DIZ
HepG2 [28] = experiment: Anticancer activity against human HepG2 cells assessed as reduction in cell viability incubated for 24 hrs by MTT colorimetric assay; assay type: functional, cell-based; details: HepG2, 24 h
MCF7 [29] = experiment: Anticancer activity against human MCF7 cells assessed as reduction in cell viability incubated for 24 hrs by MTT colorimetric assay; assay type: functional, cell-based; details: MCF7, 24 h
HCT-116 = experiment: Anticancer activity against human HCT-116 cells assessed as reduction in cell viability incubated for 24 hrs by MTT colorimetric assay; assay type: functional, cell-based; details: HCT-116, 24 h

SMILES: c1ccc(-c2nn(-c3ccccc3)cc2C2c3c(ccc4ccccc34)Oc3ncn4ncnc4c32)cc1 (centres undefined)
- IC50 (MCF7 [1]): 10 µM
- IC50 (HepG2 [2]): 9.04 µM
- IC50 [3]: 4.9 µM

SMILES: CCn1cc(C(=O)O)c(=O)c2cc(F)c(N3CCNCC3)cc21 [NORFLOXACIN]
- diameter of the inhibition zone (DIZ) (Bacillus subtilis [4]): 24 mm
- diameter of the inhibition zone (DIZ) (Escherichia coli [5]): 20 mm
- diameter of the inhibition zone (DIZ) (Salmonella typhimurium [6]): 16 mm
- MIC (Salmonella typhimurium [7]): 10 µg/mL (≈ 31.3 µM)
- diameter of the inhibition zone (DIZ) (Staphylococcus aureus [8]): 14 mm

SMILES: CCOC(=O)n1c(=O)nc2c3c(ncn21)Oc1c(c(=O)oc2ccccc12)C3c1ccc(Cl)cc1 (centres undefined)
- diameter of the inhibition zone (DIZ) (Proteus mirabilis): 21 mm
- diameter of the inhibition zone (DIZ) (Aspergillus ochraceus): 15 mm
- diameter of the inhibition zone (DIZ) (Bacillus cereus): 19 mm
- diameter of the inhibition zone (DIZ) (Staphylococcus aureus [9]): 18 mm
- diameter of the inhibition zone (DIZ) (Serratia marcescens): 21 mm
- diameter of the inhibition zone (DIZ) (Penicillium chrysogenum): 13 mm

SMILES: Cc1n[nH]c2c1C(c1ccc([N+](=O)[O-])cc1)c1c([nH]c(=O)[nH]c1=O)O2 (centres undefined)
- diameter of the inhibition zone (DIZ) (Staphylococcus aureus [10]): 20 mm
- diameter of the inhibition zone (DIZ) (Candida albicans): 12 mm
- Activity [11]: 98.4%

SMILES: CCOC(=O)C1=C(N)Oc2[nH]c(=S)[nH]c(=O)c2C1c1c(C)nn(-c2ccccc2)c1-n1ccnc1 (centres undefined)
- inhibition at 250 µg/mL [12]: 37%
- MIC (Clostridium tetani): 100 µg/mL (≈ 203 µM)
- MIC (Aspergillus fumigatus): 200 µg/mL (≈ 407 µM)
- inhibition at 100 µg/mL [13]: 30%
- IC50 (Plasmodium falciparum): 0.97 µg/mL (≈ 1.97 µM)

SMILES: COc1cc(/C=C/C(=O)C2=C(/C=C/c3ccc(O)c(OC)c3)Oc3[nH]c(=O)[nH]c(=O)c3C2c2c[nH]c3ccccc23)ccc1O (centres undefined)
- IC50 (Alpha-glucosidase): 35.3 µM

SMILES: CCOC(=O)C1=C(C)Oc2nc(C)n(Cc3cn(-c4cccc(C(F)(F)F)c4)nn3)c(=O)c2C1c1ccc([N+](=O)[O-])cc1 (centres undefined)
- zone of inhibition at 100 µg/mL (Klebsiella pneumoniae [14]): 15.5 mm
- zone of inhibition at 100 µg/mL (Bacillus subtilis [15]): 12 mm
- zone of inhibition at 100 µg/mL (Escherichia coli [16]): 14 mm

SMILES: COc1ccc(C2CC(=O)Oc3[nH]c(=O)[nH]c(=O)c32)cc1OC (centres undefined)
- IC50 (HepG2 [17]): 8.9 µM

SMILES: Nc1ncnc2c1C(c1ccccc1O)c1ccc(O)cc1O2 (centres undefined)
- IC50 [18]: 53.54 µg/mL (≈ 174 µM)
- IC50 [19]: 36.82 µg/mL (≈ 120 µM)
- IC50 [20]: 50.32 µg/mL (≈ 164 µM)

SMILES: COc1ccc(C2CC(=O)Oc3[nH]c(=O)[nH]c(=O)c32)cc1O (centres undefined)
- IC50 (HepG2 [17]): 8.8 µM

SMILES: COc1cc(/C=C/C(=O)CC(=O)/C=C/c2ccc(O)c(OC)c2)ccc1O [CURCUMIN]
- IC50 (Alpha-glucosidase): 44.8 µM

SMILES: Cc1cc(C(C)(C)C)c(O)c(C(C)(C)C)c1 [BUTYLATED HYDROXYTOLUENE]
- IC50 [18]: 65.33 µg/mL (≈ 296 µM)
- IC50 [19]: 37.52 µg/mL (≈ 170 µM)
- IC50 [20]: 56.9 µg/mL (≈ 258 µM)

SMILES: O=C1CC(c2ccc(O)cc2)c2c([nH]c(=O)[nH]c2=O)O1 (centres undefined)
- IC50 (HepG2 [17]): 8.2 µM

SMILES: O=C(O)c1cn(C2CC2)c2cc(N3CCNCC3)c(F)cc2c1=O [CIPROFLOXACIN]
- MIC (Pseudomonas aeruginosa): 3.12 µg/mL (≈ 9.42 µM)
- MIC [21]: 3.12 µg/mL (≈ 9.43 µM)
- MIC (Staphylococcus aureus [22]): 50 µg/mL (≈ 151 µM)
- MIC (Escherichia coli [23]): 3.12 µg/mL (≈ 9.42 µM)
- MIC (Staphylococcus aureus [24]): 3.12 µg/mL (≈ 9.42 µM)
- MIC (Salmonella typhimurium [7]): 25 µg/mL (≈ 75.4 µM)
- MIC (Klebsiella pneumoniae [25]): 3.12 µg/mL (≈ 9.42 µM)

SMILES: C1=COc2ncncc2C1
- zone of inhibition at 100 µg/mL (Escherichia coli [26]): 13.1 mm

SMILES: O=c1[nH]c(-c2ccccc2)nc2c1C(c1ccc(Cl)cc1)C=C(c1cc3ccccc3oc1=O)O2 (centres undefined)
- zone of inhibition at 50000 µg/mL (Escherichia coli [27]): 10 mm

SMILES: CCOC(=O)c1nc2c3c(ncn2n1)Oc1c(c(=O)oc2ccccc12)C3c1ccc(Cl)cc1 (centres undefined)
- diameter of the inhibition zone (DIZ) (Proteus mirabilis): 21 mm
- diameter of the inhibition zone (DIZ) (Aspergillus ochraceus): 15 mm
- diameter of the inhibition zone (DIZ) (Bacillus cereus): 19 mm
- diameter of the inhibition zone (DIZ) (Staphylococcus aureus [9]): 18 mm
- diameter of the inhibition zone (DIZ) (Serratia marcescens): 21 mm
- diameter of the inhibition zone (DIZ) (Penicillium chrysogenum): 13 mm

SMILES: N#CC(C#N)=C1c2c(-c3ccccc3)n[nH]c2Oc2c1c(-c1ccccc1O)[nH]c1nc(=O)[nH]c(=O)c2-1
- IC50 (HepG2 [28]): 21.9 µM
- IC50 (MCF7 [29]): 22.6 µM
- IC50 (HCT-116): 18.5 µM
